Values quoted from earlier work in patent US9550991B2, “Transcription factor decoys” (PROCARTA […]., priority 2010, dated 2017).
Entries after “also recorded” stand apart in the source; their conditions may differ.

Experiments:
[1] = physiological buffers, biological fluids, salt, dilution, storage

Row | Compound | in vitro toxicity compared to dequalinium | stability of complexes formed with DNA [1]
1 | Nc1c2c([n+](CCCCCCCCCC[n+]3c4c(c(N)c5ccccc53)CCCC4)c3ccccc13)CCCC2.[Cl-].[Cl-] [Compound 7, 10,10′-(decane-1,10-diyl)bis(9-amino-1,2,3,4-tetrahydroacridinium) dichloride] | lower toxicity in vitro compared to dequalinium; also recorded: less in vitro toxicity than dequalinium | forms more stable complexes
2 | Cc1cc(N)c2ccccc2[n+]1CCCCCCCCCC[n+]1c(C)cc(N)c2ccccc21 [dequalinium] |  | unstable over time
